# Key:
# medaka Esr1 (mEsr1) = target: T1, medaka Esr1 (mEsr1) (Oryzias latipes, UniProt P50241); experiment: Medaka Esr1 reporter gene assay (RGA), antagonist assay with 1 nM E2, HEK293 cells; assay type: cell-based, Japanese medaka (Oryzias latipes); settings: mEsr1 RGA antagonist assay, 1 nM E2-mediated transactivation; ND = no significant response even at the highest assay concentration (in parentheses); read-out: Antagonist assay, IC50, Medaka Esr1
# T1 construct: expressed in transfected cells; host or cells: HEK293 (human embryonic kidney cells), transient transfection with FuGENE HD
# T1 sequence (P50241 1-620): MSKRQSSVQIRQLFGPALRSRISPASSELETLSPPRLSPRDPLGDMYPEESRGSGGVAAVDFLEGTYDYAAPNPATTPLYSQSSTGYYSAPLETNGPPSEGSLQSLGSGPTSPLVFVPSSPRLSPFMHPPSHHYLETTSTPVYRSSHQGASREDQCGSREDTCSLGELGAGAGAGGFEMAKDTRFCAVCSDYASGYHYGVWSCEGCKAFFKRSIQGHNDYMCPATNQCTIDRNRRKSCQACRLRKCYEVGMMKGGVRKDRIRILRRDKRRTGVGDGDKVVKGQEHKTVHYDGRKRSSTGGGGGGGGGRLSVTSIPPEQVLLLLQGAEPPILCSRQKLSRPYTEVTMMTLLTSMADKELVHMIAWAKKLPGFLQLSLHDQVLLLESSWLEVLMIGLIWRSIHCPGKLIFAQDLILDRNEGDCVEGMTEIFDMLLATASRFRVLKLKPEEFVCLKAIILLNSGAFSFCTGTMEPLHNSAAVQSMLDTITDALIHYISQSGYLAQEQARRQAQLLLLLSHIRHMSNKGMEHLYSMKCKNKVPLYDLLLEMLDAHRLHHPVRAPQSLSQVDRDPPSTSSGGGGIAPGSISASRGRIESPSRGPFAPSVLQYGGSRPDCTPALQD
# Method: To support interpretation of the biological effects observed in the FSTRA studies, in vitro RGAs using medaka Esr1 (mEsr1) and medaka ARβ (mARβ) were performed for the 16 test chemicals. In the present study, Esr1 and ARβ, which are ancestral subtypes among Esrs and ARs in Japanese medaka, were selected based on the phylogenetical analyses of Esr and AR with each receptor RGAs (Ogino et al., [2016], [2018]; Tohyama et al., [2015]).
# The mEsr1 RGA consisting of agonist and antagonist assays were performed according to the methods previously reported (Katsu et al., [2010]; Lange et al., [2012]; Miyagawa et al., [2014]). Briefly, human embryonic kidney cells 293 (HEK293), precultured, were seeded in 96‐well plates at 15,000 cells/well with 200 μl of culture medium, phenol‐red‐free Dulbecco's Modified Eagle's medium (ThermoFisher Scientific K.K., Tokyo, Japan) supplemented with 2‐mM L‐glutamine and 10% charcoal/dextran‐treated fetal bovine serum (Hyclone, UT, USA), and then incubated for 24 h in 5% CO2 at 37°C. After the 24‐h incubation, 20 μl of test medium containing 40 ng of medaka Esr1/pcDNA3.1, 80 ng of ERE‐TK‐Luc, and 20 ng of pRL‐TK‐Rlu and 1.2 μL of transfection reagent FuGENE HD (Promega, WI, USA) were added into each well. The assay plates were incubated for another 4 h in order to transfect the three vectors into the HEK293 cells. After the vectors were successfully transfected, in agonist assay, 24 μl of concentrated test chemical solution was applied to the test medium in the plate wells. […] After chemical treatment for 40 h, luciferase activity of the cells was measured, and the promoter activity was calculated as firefly (Photinus pyralis)‐/sea pansy (Renilla reniformis)‐luciferase activity in each well. The luciferase activities were quantified by a chemiluminescence assay with Dual‐Luciferase Reporter Assay System (Promega) in accordance with the manufacturer's instructions, and luminescence intensity of firefly and sea pansy luciferin was measured using a luminometer, TriStar LB941 (Berthold Technology, Oak Ridge, TN, USA).
# (§1) Effect concentrations, that is, EC50 (a half maximal effective concentration) in the agonist assay and IC50 (a half maximal inhibitory concentration) in the antagonist assay, were estimated by nonlinear curve fitting (e.g., three parameters logistic regression curve) using GraphPad Prism (GraphPad Software Inc., La Jolla, CA, USA).
# medaka ARβ (mARβ) = medaka ARβ (mARβ) (Oryzias latipes, UniProt D1MV73); experiment: Medaka ARβ reporter gene assay (RGA), agonist assay, HepG2 cells; assay type: cell-based, Japanese medaka (Oryzias latipes); settings: mARβ RGA agonist assay; ND = no significant response even at the highest assay concentration (in parentheses)
# Method: To support interpretation of the biological effects observed in the FSTRA studies, in vitro RGAs using medaka Esr1 (mEsr1) and medaka ARβ (mARβ) were performed for the 16 test chemicals.
# For the assays, human liver cancer cell line, HepG2, was used as the host cells, and mARβ/pcDNA3.1, MMTV‐Luc, and pRL‐TK‐Rlu were used as mARβ expression vector, reporter vector, and internal control vector, respectively.
# as §1
# Sequence of medaka ARβ (mARβ) (D1MV73 entry or part of it): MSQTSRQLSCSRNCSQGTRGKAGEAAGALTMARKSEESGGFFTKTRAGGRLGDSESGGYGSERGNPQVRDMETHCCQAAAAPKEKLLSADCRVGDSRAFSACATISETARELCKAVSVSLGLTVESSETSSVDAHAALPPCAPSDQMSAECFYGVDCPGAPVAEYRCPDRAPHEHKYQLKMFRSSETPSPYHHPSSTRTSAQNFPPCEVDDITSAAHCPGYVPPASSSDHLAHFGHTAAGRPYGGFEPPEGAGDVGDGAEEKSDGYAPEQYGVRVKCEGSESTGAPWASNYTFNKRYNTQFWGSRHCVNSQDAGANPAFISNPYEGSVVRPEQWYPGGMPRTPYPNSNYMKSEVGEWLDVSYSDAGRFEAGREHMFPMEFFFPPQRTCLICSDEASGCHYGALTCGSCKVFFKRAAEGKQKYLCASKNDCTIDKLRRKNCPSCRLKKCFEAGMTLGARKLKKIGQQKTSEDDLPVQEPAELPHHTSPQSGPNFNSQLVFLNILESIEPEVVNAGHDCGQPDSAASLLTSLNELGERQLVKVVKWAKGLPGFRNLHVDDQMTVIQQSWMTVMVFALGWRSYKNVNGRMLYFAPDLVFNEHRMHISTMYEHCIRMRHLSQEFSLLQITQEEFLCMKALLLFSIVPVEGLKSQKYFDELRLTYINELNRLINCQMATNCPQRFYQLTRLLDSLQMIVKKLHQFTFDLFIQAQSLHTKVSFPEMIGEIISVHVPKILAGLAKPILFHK
smiles,measurement,setting,value
"C[C@]12CC(=O)[C@H]3[C@@H](CCC4=CC(=O)CC[C@@]43C)[C@@H]1CC[C@@H]2O [11KT, 11‐ketotestosterone]",IC50,medaka Esr1 (mEsr1),> 100000 nM
same,EC50,medaka ARβ (mARβ),2.7 nM

# From PMC8359193, “Summary of reference chemicals evaluated by the fish short‐term reproduction assay, OECD TG229, using Japanese Medaka, Oryzias latipes” (Journal of Applied Toxicology, 2021)
